Experimental findings from ChEMBL document CHEMBL1131037, “Structure-based design, synthesis, and biological evaluation of irreversible human rhinovirus 3C protease inhibitors. 2. Peptide structure-activity studies” (J Med Chem, 1998) are described below.

pEC50: −log10 of the molar value. A value given as a limit tells only on which side of the number the result lay.

The test system of assay [1] is rhinovirus B14. The assay is described as follows: Cytotoxic activity against HRV-14 in cell culture. It is filed as functional, rhinovirus 14. Particulars: Rhinovirus B.
In assay [2] the test system is rhinovirus B14. Put plainly: Antiviral activity against HRV-14 in cell culture. It is filed as functional, organism-based. The conditions noted are these: Rhinovirus B.
In assay [3] the target is T1, Human rhinovirus A protease (Human rhinovirus sp.) (UniProt Q4U254).
T1 sequence (whole entry): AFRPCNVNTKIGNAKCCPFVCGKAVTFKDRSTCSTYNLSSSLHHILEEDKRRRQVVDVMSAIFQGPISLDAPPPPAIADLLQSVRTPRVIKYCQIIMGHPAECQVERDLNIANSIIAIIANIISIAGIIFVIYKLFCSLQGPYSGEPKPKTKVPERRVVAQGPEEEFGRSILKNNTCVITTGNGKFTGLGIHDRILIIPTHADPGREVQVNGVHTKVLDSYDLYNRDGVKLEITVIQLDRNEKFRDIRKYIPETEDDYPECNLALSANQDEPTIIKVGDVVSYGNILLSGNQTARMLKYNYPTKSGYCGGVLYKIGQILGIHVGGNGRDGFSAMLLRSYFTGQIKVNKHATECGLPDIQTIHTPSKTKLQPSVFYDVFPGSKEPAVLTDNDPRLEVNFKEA
Put plainly: Binding affinity on human Rhinovirus 3C protease (rhinovirus serotype 14).

In turn, `CCOC(=O)/C=C/[C@H](CCC(N)=O)NC(=O)[C@H](Cc1ccccc1)NC(=O)[C@H](CCN1CCOCC1)NC(=O)OCc1ccccc1` yielded a CC50 in the assay with rhinovirus B14 [1] of more than 100 µM. In the assay on rhinovirus B14 [2], this molecule had a pEC50 of 5.29. Also, the K obs / 1 in assay [3] came to 35000 M⁻¹ s⁻¹.
On to `CCOC(=O)/C=C/[C@H](CCC(N)=O)NC(=O)[C@H](Cc1ccccc1)NC(=O)[C@H](CC(C)C)NC(=O)OCc1ccccc1C`, for which the CC50 with rhinovirus B14 [1] was more than 100 µM. Moreover, the pEC50 in the assay with rhinovirus B14 [2] was 6.00. The K obs / 1 in assay [3] amounted to 41800 M⁻¹ s⁻¹.
`CCOC(=O)/C=C/[C@H](CCC(N)=O)NC(=O)[C@H](Cc1ccccc1)NC(=O)[C@H](CCC(=O)O)NC(=O)OCc1ccccc1`: in the assay on rhinovirus B14 [1], the cytotoxic concentration (CC50) is more than 320 µM. In addition, in the assay on rhinovirus B14 [2], the pEC50 is 5.26. The K obs / 1 in assay [3] amounted to 78900 M⁻¹ s⁻¹.
`CCOC(=O)/C=C/[C@H](CCC(=O)O)NC(=O)[C@H](Cc1ccccc1)NC(=O)[C@H](CC(C)C)NC(=O)OCc1ccccc1` registered a CC50 in the assay with rhinovirus B14 [1] of more than 100 µM. Further, the pEC50 in the assay with rhinovirus B14 [2] is 4.85. In assay [3], this molecule showed a K obs / 1 of 500 M⁻¹ s⁻¹.
Consider `CCOC(=O)/C=C/[C@H](CCC(N)=O)NC(=O)[C@H](Cc1ccccc1)NC(=O)[C@H](CC(C)C)NC(=O)c1ccc(Oc2ccccc2)cc1`, for which the CC50 in the assay on rhinovirus B14 [1] is more than 320 µM. The molecule also showed a pEC50 in the assay on rhinovirus B14 [2] of 5.28. In assay [3], this molecule had a K obs / 1 of 8000 M⁻¹ s⁻¹.
Taken in the same sequence, the figures for `CCOC(=O)/C=C/[C@H](CCC(N)=O)NC(=O)[C@H](Cc1ccccc1)NC(=O)[C@H](CC(C)C)NC(=O)c1ccccc1` were more than 320 µM, 5.28 and 9600 M⁻¹ s⁻¹.
For `CCOC(=O)/C=C/[C@H](CCC(N)=O)NC(=O)[C@H](Cc1ccccc1)NC(=O)[C@H](CC(C)C)NC(=O)OC`, the CC50 in the assay with rhinovirus B14 [1] was more than 320 µM. Besides, the pEC50 in the assay with rhinovirus B14 [2] is 5.89. The molecule further displayed a K obs / 1 in assay [3] of 9100 M⁻¹ s⁻¹.
In turn, `CCOC(=O)/C=C/[C@H](CCC(N)=O)NC(=O)[C@H](Cc1ccccc1)NC(=O)[C@H](CC(C)C)NC(=O)[C@@H](NC(C)=O)[C@@H](C)O` showed a CC50 in the assay on rhinovirus B14 [1] of more than 100 µM. The same molecule had a negative-log EC50 (pEC50) with rhinovirus B14 [2] of less than 4.00. The molecule further returned a K obs / 1 in assay [3] of 4600 M⁻¹ s⁻¹.
`CCOC(=O)/C=C/[C@H](CCC(=O)NC(c1ccccc1)(c1ccccc1)c1ccccc1)NC(=O)[C@H](Cc1ccccc1)NC(=O)[C@H](CC(C)C)NC(=O)OCc1ccccc1` yielded a CC50 with rhinovirus B14 [1] of more than 320 µM. Further, in the assay with rhinovirus B14 [2], the pEC50 is 4.00. For the same molecule, the K obs / 1 in assay [3] amounted to 0 M⁻¹ s⁻¹.
Taken in the same sequence, the figures for `CCOC(=O)/C=C/[C@H](CCC(N)=O)NC(=O)[C@H](CSC)NC(=O)[C@H](CC(C)C)NC(=O)OCc1ccccc1` were more than 320 µM, 5.05 and 2900 M⁻¹ s⁻¹.
In the assay on rhinovirus B14 [1], `CCOC(=O)/C=C/[C@H](CCC(N)=O)NC(=O)[C@H](Cc1ccccc1)NC(=O)[C@@H](NC(=O)OCc1ccccc1)C(C)(C)O` had a CC50 of more than 100 µM. The molecule also gave a pEC50 in the assay on rhinovirus B14 [2] of 6.18. The K obs / 1 in assay [3] turned out to be 98000 M⁻¹ s⁻¹.
In turn, `CCOC(=O)/C=C/[C@H](CCC(N)=O)NC(=O)[C@H](Cc1ccccc1)NC(=O)[C@@H](NC(=O)OCc1ccccc1)[C@H](C)O` came in with a CC50 in the assay on rhinovirus B14 [1] of more than 320 µM. For the same molecule, in the assay on rhinovirus B14 [2], the pEC50 is 5.74. Also, in assay [3], the K obs / 1 came out at 38900 M⁻¹ s⁻¹.
With `CCOC(=O)/C=C/[C@H](CCC(N)=O)NC(=O)[C@H](Cc1ccccc1)NC(=O)[C@@H](NC(=O)OCc1ccccc1)[C@@H](C)CC`, in the assay on rhinovirus B14 [1], the CC50 is more than 100 µM. This molecule gave a pEC50 with rhinovirus B14 [2] of 6.10. Further, in assay [3], the K obs / 1 amounted to 31700 M⁻¹ s⁻¹.
Regarding `CCOC(=O)/C=C/[C@H](CNC(N)=O)NC(=O)[C@H](Cc1ccccc1)NC(=O)[C@H](CC(C)C)NC(=O)OCc1ccccc1`, the CC50 in the assay on rhinovirus B14 [1] was more than 100 µM. In the assay on rhinovirus B14 [2], this molecule showed a pEC50 of 4.49. The molecule also displayed a K obs / 1 in assay [3] of 3500 M⁻¹ s⁻¹.
Consider `CCOC(=O)/C=C/[C@H](CCC(=O)NC)NC(=O)[C@H](Cc1ccccc1)NC(=O)[C@H](CC(C)C)NC(=O)OCc1ccccc1`, for which the CC50 in the assay on rhinovirus B14 [1] was more than 100 µM. In the assay on rhinovirus B14 [2], this molecule had a pEC50 of 5.25. This molecule also had a K obs / 1 in assay [3] of 750 M⁻¹ s⁻¹.
As to `CCOC(=O)/C=C/[C@H](CCC(N)=O)NC(=O)[C@H](Cc1ccccc1)NC(=O)[C@@H](NC(=O)OCc1ccccc1)C1CCCCC1`, the CC50 in the assay on rhinovirus B14 [1] was more than 100 µM. The same molecule showed a pEC50 in the assay with rhinovirus B14 [2] of 6.00. In assay [3], the K obs / 1 was 36200 M⁻¹ s⁻¹.
